Experimental data taken from ChEMBL document CHEMBL1201862, “PubChem BioAssay data set” (2004).
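Interpolation was linear, between the two tested concentrations surrounding the appropriate level; five concentrations were tested over 48 hours in 96-well plates. The concentration for 50% growth inhibition is given as GI50.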 Calls of active or inactive are those of the source. Cut-off read from the data, not from the text of the source: active = GI50 up to about 1.1 µM and inactive = higher.

Key:
Assay in all cases: inhibition of tumour cell growth, NCI panel, 48 h
UO-31 = system: UO-31
SK-OV-3 = system: SK-OV-3
SN12C = system: SN12C
U-251 = system: U-251
SF-295 = system: SF-295
A498 = system: A498
NCI-H460 = system: NCI-H460
RXF 393 = system: RXF 393
M14 = system: M14
LOX IMVI = system: LOX IMVI
SF-539 = system: SF-539
A549 = system: A549
Hs-578T = system: Hs-578T
RPMI-8226 = system: RPMI-8226
OVCAR-8 = system: OVCAR-8
CCRF-CEM = system: CCRF-CEM
HL-60 = system: HL-60
KM12 = system: KM12
MDA-N = system: MDA-N
MOLT-4 = system: MOLT-4

| SMILES | GI50 (UO-31) | GI50 (SK-OV-3) | GI50 (SN12C) | GI50 (U-251) | GI50 (SF-295) | GI50 (A498) | GI50 (NCI-H460) | GI50 (RXF 393) | GI50 (M14) | GI50 (LOX IMVI) | GI50 (SF-539) | GI50 (A549) | GI50 (Hs-578T) | GI50 (RPMI-8226) | GI50 (OVCAR-8) | GI50 (CCRF-CEM) | GI50 (HL-60) | GI50 (KM12) | GI50 (MDA-N) | GI50 (MOLT-4) |
| --- | --- | --- | --- | --- | --- | --- | --- | --- | --- | --- | --- | --- | --- | --- | --- | --- | --- | --- | --- | --- |
| COc1ccc([N+](=O)[O-])cc1[I+]c1cc([N+](=O)[O-])ccc1OC | 60.5 µM (inactive) | 29.4 µM (inactive) | 43.5 µM (inactive) | 16.1 µM (inactive) | 33.3 µM (inactive) | 81.5 µM (inactive) | 22.5 µM (inactive) | 27.7 µM (inactive) | 39.6 µM (inactive) | 29.4 µM (inactive) | 44 µM (inactive) | 45.8 µM (inactive) | 91.6 µM (inactive) | 23.7 µM (inactive) | 73.6 µM (inactive) | 25.4 µM (inactive) | 20.7 µM (inactive) | 22.7 µM (inactive) |  |  |
| CCOC(=O)/C(=C/Nc1c(C)n(C)n(-c2ccccc2)c1=O)C(C)=O | > 100 µM (inactive) | > 100 µM (inactive) | > 100 µM (inactive) | > 100 µM (inactive) | > 100 µM (inactive) | > 100 µM (inactive) |  | > 100 µM (inactive) | > 100 µM (inactive) | > 100 µM (inactive) | > 100 µM (inactive) | > 100 µM (inactive) |  | > 100 µM (inactive) | > 100 µM (inactive) | > 100 µM (inactive) | > 100 µM (inactive) | > 100 µM (inactive) | > 100 µM (inactive) | > 100 µM (inactive) |
| COc1ccc(N2C(=O)CSC2c2cc3cc(Br)ccc3nc2Cl)cc1 (stereo not given) | > 50 µM (inactive) | > 50 µM (inactive) | > 50 µM (inactive) |  | 19.9 µM (inactive) | > 50 µM (inactive) | 22.1 µM (inactive) | > 50 µM (inactive) | 38.5 µM (inactive) | 37.6 µM (inactive) | > 50 µM (inactive) | 48.6 µM (inactive) | > 50 µM (inactive) | 41.8 µM (inactive) | > 50 µM (inactive) | 31.6 µM (inactive) | > 50 µM (inactive) | 20.9 µM (inactive) |  | 21 µM (inactive) |
| N#CC(C(=O)/C(=N\NC(N)=O)C(C#N)c1ccc(Cl)cc1)c1ccc(Cl)cc1 (stereo not given) | > 100 µM (inactive) | > 100 µM (inactive) | > 100 µM (inactive) | > 100 µM (inactive) | > 100 µM (inactive) | > 100 µM (inactive) | > 100 µM (inactive) | > 100 µM (inactive) | > 100 µM (inactive) | > 100 µM (inactive) | > 100 µM (inactive) | > 100 µM (inactive) |  | > 100 µM (inactive) | > 100 µM (inactive) | > 100 µM (inactive) | > 100 µM (inactive) | > 100 µM (inactive) |  | > 100 µM (inactive) |
| c1ccc(C2(c3ccccc3)SSC3(S2)C2CC4CC(C2)CC3C4)cc1 (stereo not given) | > 100 µM (inactive) | > 100 µM (inactive) | > 100 µM (inactive) | > 100 µM (inactive) | > 100 µM (inactive) | > 100 µM (inactive) | > 100 µM (inactive) | > 100 µM (inactive) | > 100 µM (inactive) | > 100 µM (inactive) | > 100 µM (inactive) | > 100 µM (inactive) |  | 37.2 µM (inactive) | > 100 µM (inactive) | 39.7 µM (inactive) | 35.9 µM (inactive) | > 100 µM (inactive) |  | > 56.6 µM (inactive) |
| Cc1cn(C2CC(OC3CCCCO3)C(CO)O2)c(=O)[nH]c1=O (stereo not given) | > 100 µM (inactive) | > 100 µM (inactive) | > 100 µM (inactive) | > 100 µM (inactive) | > 100 µM (inactive) | > 100 µM (inactive) | > 100 µM (inactive) | > 100 µM (inactive) | > 100 µM (inactive) | > 100 µM (inactive) | > 100 µM (inactive) | > 100 µM (inactive) |  | > 100 µM (inactive) | > 100 µM (inactive) | > 100 µM (inactive) | > 100 µM (inactive) | > 100 µM (inactive) |  | > 100 µM (inactive) |
| O=c1nc2n3c4c(cccc4nc-2c(=O)[nH]1)CCC3 | > 100 µM (inactive) | > 100 µM (inactive) | > 100 µM (inactive) | > 100 µM (inactive) | > 100 µM (inactive) |  | > 100 µM (inactive) | > 100 µM (inactive) | > 100 µM (inactive) | > 100 µM (inactive) | > 100 µM (inactive) | > 100 µM (inactive) | 28.2 µM (inactive) | > 100 µM (inactive) | > 100 µM (inactive) | > 100 µM (inactive) | 70.8 µM (inactive) | 37.4 µM (inactive) | > 100 µM (inactive) | > 100 µM (inactive) |
| C=C(Nc1nc2ccc(C)cc2s1)C(=O)C(CC)C(=O)C(CC)CC1C(=O)NC(=O)NC1=O (stereo not given) | > 100 µM (inactive) | > 100 µM (inactive) | > 100 µM (inactive) | > 100 µM (inactive) | > 100 µM (inactive) |  | > 100 µM (inactive) | > 100 µM (inactive) | > 100 µM (inactive) | > 100 µM (inactive) | > 100 µM (inactive) | > 100 µM (inactive) | > 100 µM (inactive) |  | > 100 µM (inactive) | > 100 µM (inactive) | > 100 µM (inactive) | > 100 µM (inactive) | > 100 µM (inactive) | > 100 µM (inactive) |
| O=[N+]([O-])c1cc(Cl)ccc1S(=O)(=O)c1ccccc1 | > 100 µM (inactive) | > 100 µM (inactive) | > 100 µM (inactive) | > 100 µM (inactive) | > 100 µM (inactive) | > 100 µM (inactive) | > 100 µM (inactive) | 54.6 µM (inactive) | > 100 µM (inactive) | 27.6 µM (inactive) | > 100 µM (inactive) | > 100 µM (inactive) | 26.7 µM (inactive) | > 100 µM (inactive) | > 100 µM (inactive) | 29.8 µM (inactive) | 38.9 µM (inactive) | > 100 µM (inactive) |  | > 100 µM (inactive) |
| Cc1nc2c(n1CCCl)C(=O)c1ccccc1C2=O |  | 5.22 µM (inactive) | 30.3 µM (inactive) | 12.6 µM (inactive) | 21.4 µM (inactive) |  | 14.9 µM (inactive) | 19.5 µM (inactive) | 4.68 µM (inactive) |  | 31.4 µM (inactive) | 33.7 µM (inactive) | 20.1 µM (inactive) | 58.6 µM (inactive) | 17.9 µM (inactive) | 22.6 µM (inactive) | 16.3 µM (inactive) | 25.3 µM (inactive) | 18.7 µM (inactive) | 12.9 µM (inactive) |
| CC(C(=O)N1C(=O)N(C(=O)[C@H](C)C(O)c2ccccc2)[C@H](c2ccccc2)[C@H]1c1ccccc1)[C@@H](O)c1ccccc1 (stereo not given in full) | 31.5 µM (inactive) | 83.6 µM (inactive) | 38.8 µM (inactive) | 35.9 µM (inactive) | 29.2 µM (inactive) | 24.3 µM (inactive) | 22.4 µM (inactive) |  | 28.5 µM (inactive) |  | 22.2 µM (inactive) | 33 µM (inactive) |  |  | 25.1 µM (inactive) |  | 22 µM (inactive) | 31.2 µM (inactive) | 20 µM (inactive) |  |
| CCOc1ccc2[nH]c3c(C)c4ccncc4c(C)c3c2c1 | 2.91 µM (inactive) | 3.91 µM (inactive) | 0.564 µM (active) | 1 µM (active) | 1.02 µM (active) | 1.8 µM (inactive) | 0.451 µM (active) | 1.54 µM (inactive) | 1.55 µM (inactive) | 1.2 µM (inactive) | 1.58 µM (inactive) | 1.45 µM (inactive) |  | 1.36 µM (inactive) | 0.789 µM (active) | 0.649 µM (active) | 1.2 µM (inactive) | 1 µM (active) |  | 0.426 µM (active) |
| CCc1nc2ccc(/N=N/N(C)C)cc2[nH]1 | > 100 µM (inactive) |  | > 100 µM (inactive) | > 100 µM (inactive) |  |  | > 100 µM (inactive) | 45.3 µM (inactive) | > 100 µM (inactive) |  |  | > 100 µM (inactive) | > 100 µM (inactive) | > 100 µM (inactive) | > 100 µM (inactive) | > 100 µM (inactive) |  | > 100 µM (inactive) | > 100 µM (inactive) | > 100 µM (inactive) |
| NNC(=O)COc1nc(-c2cccs2)nc2ccc(I)cc12 | 21.1 µM (inactive) | 20.6 µM (inactive) | 23.1 µM (inactive) | 18.7 µM (inactive) | 28.8 µM (inactive) |  | 21.8 µM (inactive) | 34.3 µM (inactive) | 23.1 µM (inactive) | 17.6 µM (inactive) |  | 18.7 µM (inactive) |  |  | 29 µM (inactive) |  |  | 17.1 µM (inactive) | 31.7 µM (inactive) | 25.7 µM (inactive) |
| NC(c1ccccc1)(C(F)(F)F)P1(=O)OC(=O)c2ccccc2O1 (stereo not given) | > 100 µM (inactive) | 26.9 µM (inactive) | > 100 µM (inactive) | > 100 µM (inactive) | > 100 µM (inactive) | 84.1 µM (inactive) | > 100 µM (inactive) | > 100 µM (inactive) | > 100 µM (inactive) |  | > 100 µM (inactive) | > 100 µM (inactive) |  | > 100 µM (inactive) | > 100 µM (inactive) |  |  | > 100 µM (inactive) | > 100 µM (inactive) | 48.8 µM (inactive) |
| C[Si](C)(C)/C=C\CCO | > 100 µM (inactive) | > 100 µM (inactive) | > 100 µM (inactive) | > 100 µM (inactive) | > 100 µM (inactive) | > 100 µM (inactive) | > 100 µM (inactive) | > 100 µM (inactive) | > 100 µM (inactive) | > 100 µM (inactive) | > 100 µM (inactive) | > 100 µM (inactive) |  | > 100 µM (inactive) | > 100 µM (inactive) | > 100 µM (inactive) | > 100 µM (inactive) | > 100 µM (inactive) |  | > 100 µM (inactive) |
